Measured values: the Bradley open melting point set (2014)
Where “and” joins values, the source holds several entries; their conditions need not be identical. Equal entries are not always repeated.

Structure (SMILES) | melting point
O=[PH](c1ccccc1)c1ccccc1 [diphenylphosphine oxide] | 54 °C
CN(C)C(=O)Nc1ccc(Cl)c(Cl)c1 [diuron] | 158 °C (2×) and 159 °C
CCCCCCCCCCCC#N [dodecanonitrile] | 4 °C
Cl\C1=C(/Cl)C2(Cl)C3C4CC(C3C1(Cl)C2(Cl)Cl)C5OC45 (stereo not given) [endrin] | 210 °C
ClCC1CO1 (stereo not given) [epichlorohydrin] [listing 1 of 2 here] | -57 °C
ClCC1CO1 (stereo not given) [epichlorohydrin] [listing 2 of 2 here] | -57.1 °C
CCC1OC(=O)C(C)C(OC2CC(C)(OC)C(O)C(C)O2)C(C)C(OC2OC(C)CC(N(C)C)C2O)C(C)(O)CC(C)C(=O)C(C)C(O)C1(C)O (stereo not given) [erythromycin] | 135 °C
CCO [ethanol] | -114 °C
C#CC1(O)CCC2C3CCc4cc(O)ccc4C3CCC21C (stereo not given) [ethinylestradiol] | 141 °C
CCOC(=O)c1sc(N)nc1C [ethyl 2-amino-4-methylthiazole-5-carboxylate] | 174 °C
CCOC(=O)C(C#N)=C(SC)N(C)C [ethyl 2-cyano-3-(dimethylamino)-3-(methylthio)acrylate] | 92 °C
CCOC(=O)c1csc(C)n1 [ethyl 2-methyl-1,3-thiazole-4-carboxylate] | 57 °C
CCOC(=O)c1cc(O)c(O)c(O)c1 [ethyl 3,4,5-trihydroxybenzoate] | 150 °C
CCOC(=O)C1=C(C)N=NC1C (stereo not given) [ethyl 3,5-dimethyl-1H-pyrazole-4-carboxylate] | 119 °C
CCOC(=O)CCC(C)C1CCC2C3C(=O)C(Br)C4CC(OC(C)=O)CCC4(C)C3CC(OC(C)=O)C12C (stereo not given) [ethyl 3,12-bis(acetyloxy)-6-bromo-7-oxocholan-24-oate] | 125 °C
CCOC(=O)c1c[nH]nc1N [ethyl 3-amino-1h-pyrazole-4-carboxylate] | 106 °C
CCOC(=O)c1ccc(-n2cccc2)cc1 [ethyl 4-(1-pyrrolyl)benzoate] | 75 °C
CCOC(=O)c1ccc(N)cc1 [ethyl 4-aminobenzoate] | 89 °C
CCOC(=O)Cc1ccc(N)cc1 [ethyl 4-aminophenylacetate] | 47 °C
CCOC(=O)c1ccc(Cl)c([N+](=O)[O-])c1 [ethyl 4-chloro-3-nitrobenzoate] | 54 °C
CCOC(=O)c1ccc(OC)cc1 [ethyl 4-methoxybenzoate] | 8 °C
CCOC(=O)c1cc(C)n(C2=CC(C)N=N2)n1 (stereo not given) [ethyl 5,5'-dimethyl-1'H-1,3'-bipyrazole-3-carboxylate] | 121 °C
CCOC(=O)Nc1cccc([N+](=O)[O-])c1[N+](=O)[O-] [ethyl (2,3-dinitrophenyl)carbamate] | 103 °C
CCOC(=O)c1ccc2c(c1)no[n+]2[O-] [ethyl benzofuroxan-5-carboxylate] | 67 °C
CCOC(=O)CNC(=O)c1ccccc1 [ethyl hippurate] | 59 °C

Structure (SMILES) | melting point
CCOC(=O)CC(C)C [ethyl isovalerate] | -99 °C
CCOC(=O)[C@H](C)O [ethyl l-lactate] | -25 °C
CCOC(C)=NOc1ccc([N+](=O)[O-])cc1[N+](=O)[O-] [ethyl n-(2,4-dinitrophenoxy)acetimidate] | 112 °C
CCOC(=O)c1ccc(N)cc1 [ethyl p-aminobenzoate] | 89 °C
CCOC(=O)CC [ethyl propionate] | -73 °C
CCOC(=O)c1ccccc1O [ethyl salicylate] | 1 °C
CCCCCCCCCCCCCCCCCC(=O)OCC [ethyl stearate] | 35 °C
C=COCC [ethyl vinyl ether] | -115 °C
CCOC(=O)c1ccccc1N [ethyl_2-aminobenzoate] | 14 °C
C=CC(=O)OCC [ethyl_acrylate] | -71 °C
CCCCOCC [ethyl_butyl_ether] | -103 °C
CCOC(=O)CC#N [ethyl_cyanoacetate] | -22 °C
CCOC(=O)c1ccccc1C#N [ethyl_o-cyanobenzoate] | 68 °C
CCOS(=O)(=O)c1ccc(C)cc1 [ethyl_p-toluenesulfonate] | 34 °C
CCOC(=O)CC [ethyl_propionate] | -73 °C
CCc1ccccc1 [ethylbenzene] | -95 °C
CCB(O)O [ethylboronic acid] | 86 °C
CCOC(=O)c1ccc(O)cc1 [ethylparaben] | 116 °C
CCNc1nsc2ccccc12 [etisazol] | 78 °C
CCOC(=O)c1cncn1C(C)c1ccccc1 (stereo not given) [etomidate] | 67 °C
O=C1OC(=O)[C@H]2[C@@H]1[C@@H]1C=C[C@H]2O1 [exo-7-oxabicyclo[2.2.1]hept-5-ene-2,3-dicarboxylic anhydride] | 119 °C
NC(N)=Nc1nc(CSCCC(N)=NS(N)(=O)=O)cs1 [famotidine] | 163 °C
N#CC(CCc1ccc(Cl)cc1)(Cn1cncn1)c1ccccc1 (stereo not given) [fenbuconazole] | 125 °C
O=C(O)CCC(=O)c1ccc(-c2ccccc2)cc1 [fenbufen] | 186 °C
CC1(C)C(=O)[C@]2(C)CC[C@H]1C2 [fenchone] | 4 °C

Structure (SMILES) | melting point
CCOC(=O)NCCOc1ccc(Oc2ccccc2)cc1 [fenoxycarb] | 53.5 °C
CN(C)C(=O)Nc1ccccc1 [fenuron] | 134 °C
COc1ccccc1N1CCN(CCCC(=O)c2ccc(F)cc2)CC1 [fluanisone] | 68 °C
O=C1COC(c2ccc(C(F)(F)F)cc2)CN1 (stereo not given) [flumetramide] | 116 °C
c1ccc2c(c1)Cc1ccccc1-2 [fluorene] | 114 °C and 116 °C
O=CO [formic acid] | 8.3 °C and 8.32 °C
C(=C/C#N)C#N [fumaronitrile] | 97 °C
OCc1ccco1 [furfuryl alcohol] | -31 °C
O=C(O)c1ccco1 [furoic acid] | 134 °C
O=C(O)c1cc(O)ccc1O [gentisic acid] | 205 °C
O=C(O)CCCC(=O)O [glutaric acid] | 97 °C
N#CCCCC#N [glutaronitrile] | -29 °C
COc1ccc(Cl)cc1C(=O)NCCc1ccc(S(=O)(=O)NC(=O)NC2CCCCC2)cc1 [glybenzcyclamide] | 173 °C
NCC(=O)O [glycine] | 262 °C
COC1=CC(=O)CC(C)C12Oc1c(Cl)c(OC)cc(OC)c1C2=O (stereo not given) [griseofulvin] | 219 °C
COC1=CC(=O)C[C@@H](C)[C@]12Oc1c(Cl)c(OC)cc(OC)c1C2=O [griseofulvin] | 219 °C
Cc1ccc(C(C)C)cc2c(C)ccc1-2 [guaiazulene] | 32 °C
O=C(CCCN1CCC(O)(c2ccc(Cl)cc2)CC1)c1ccc(F)cc1 [haloperidol] [listing 1 of 2 here] | 149 °C
O=C(CCCN1CCC(O)(c2ccc(Cl)cc2)CC1)c1ccc(F)cc1 [haloperidol] [listing 2 of 2 here] | 152 °C
COc1ccc2c(c1)[nH]c1c(C)nccc12 [harmine] | 264 °C
CCC1(C2=CCCCCC2)C(=O)NC(=O)NC1=O [heptabarbital] | 175 °C
CCCCCCCCCCCCCCCCC [heptadecane] | 22 °C
CCCCCCCCCCCCCCCCC(=O)O [heptadecanoic acid] | 61 °C
CCCCCCC [heptane] | -91 °C and -90.6 °C
CCCCCCC#N [heptanenitrile] | -64 °C
